Assay [1] deals with Potassium voltage-gated channel subfamily KQT member 2 (Rattus norvegicus, UniProt O88943). The experiment in a line: KCNQ2 potassium channel inhibitors, dose response, cell-based, automated electrophysiology, set II, rat KCNQ2 (AID 588637). The format is functional.
For assay [2], the target named is DNA repair and recombination protein RAD54-like (Homo sapiens, UniProt Q92698). The experiment in a line: inhibitors of human RAD54 branch migration, confirmation, biochemical, fluorescence, cherry-picked samples, dose series (AID 651657). The class given is functional.
Chain of DNA repair and recombination protein RAD54-like (Q92698 whole entry): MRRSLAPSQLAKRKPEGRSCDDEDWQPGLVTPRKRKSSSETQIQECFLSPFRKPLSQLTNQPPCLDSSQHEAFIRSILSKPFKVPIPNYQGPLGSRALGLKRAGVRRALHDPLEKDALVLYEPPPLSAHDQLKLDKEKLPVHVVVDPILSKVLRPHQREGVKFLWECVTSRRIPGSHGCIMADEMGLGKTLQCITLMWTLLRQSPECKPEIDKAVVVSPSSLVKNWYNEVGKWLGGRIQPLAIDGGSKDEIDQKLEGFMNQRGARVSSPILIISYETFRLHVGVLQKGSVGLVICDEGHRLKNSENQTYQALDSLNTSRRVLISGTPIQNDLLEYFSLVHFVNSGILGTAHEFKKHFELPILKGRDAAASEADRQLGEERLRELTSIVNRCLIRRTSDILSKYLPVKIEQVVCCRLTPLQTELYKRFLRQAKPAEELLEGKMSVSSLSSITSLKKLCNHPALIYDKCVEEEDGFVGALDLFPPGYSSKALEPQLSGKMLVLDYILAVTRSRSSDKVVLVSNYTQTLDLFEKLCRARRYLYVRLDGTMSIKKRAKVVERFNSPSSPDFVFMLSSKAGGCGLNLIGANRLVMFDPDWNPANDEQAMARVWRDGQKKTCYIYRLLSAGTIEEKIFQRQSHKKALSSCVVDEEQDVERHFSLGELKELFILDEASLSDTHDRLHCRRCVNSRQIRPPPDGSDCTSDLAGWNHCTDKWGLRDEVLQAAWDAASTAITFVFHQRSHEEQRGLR
For assay [3], the target named is DNA (cytosine-5)-methyltransferase 1 (Homo sapiens, UniProt P26358). The experiment in a line: DNMT1 methyltransferase inhibitors, confirmation, biochemical, fluorescent molecular beacon (AID 602386). The class given is functional.
Assay [4] deals with T1, Zinc finger protein mex-5 (Caenorhabditis elegans, UniProt Q9XUB2).
T1 sequence (Q9XUB2 whole entry): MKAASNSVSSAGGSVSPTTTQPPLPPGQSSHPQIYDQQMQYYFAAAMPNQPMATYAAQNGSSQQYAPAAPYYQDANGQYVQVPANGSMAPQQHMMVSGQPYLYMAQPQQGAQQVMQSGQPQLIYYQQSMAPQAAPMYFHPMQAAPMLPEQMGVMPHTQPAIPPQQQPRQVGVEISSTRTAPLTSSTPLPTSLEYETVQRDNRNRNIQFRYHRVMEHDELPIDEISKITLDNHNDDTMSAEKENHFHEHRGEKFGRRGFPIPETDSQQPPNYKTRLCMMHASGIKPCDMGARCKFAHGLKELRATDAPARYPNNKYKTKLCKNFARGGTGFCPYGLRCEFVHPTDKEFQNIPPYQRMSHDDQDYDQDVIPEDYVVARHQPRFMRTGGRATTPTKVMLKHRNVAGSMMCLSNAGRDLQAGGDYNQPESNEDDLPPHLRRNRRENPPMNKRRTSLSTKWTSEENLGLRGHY
The experiment in a line: MEX-5/TCR-2 RNA interaction inhibitors, dose response, biochemical, C. elegans, fluorescence polarization (AID 1960).

The target in assay [5] is T2, RNA-binding protein pos-1 (Caenorhabditis elegans, UniProt G5EF15).
T2 sequence (G5EF15 whole entry): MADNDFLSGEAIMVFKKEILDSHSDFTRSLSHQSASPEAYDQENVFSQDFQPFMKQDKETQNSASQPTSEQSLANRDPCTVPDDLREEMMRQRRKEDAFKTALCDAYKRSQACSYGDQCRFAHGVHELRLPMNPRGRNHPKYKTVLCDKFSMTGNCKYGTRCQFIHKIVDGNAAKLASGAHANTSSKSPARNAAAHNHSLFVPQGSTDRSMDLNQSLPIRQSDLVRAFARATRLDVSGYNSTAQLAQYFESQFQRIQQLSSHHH
Description: inhibitors of POS-1/mex-3 RNA binding, dose response, biochemical, fluorescence polarization (AID 1964).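 Note: purified POS-1 fused to maltose binding protein made in E. coli; potency of compounds blocking POS-1 binding to fluorescent RNA.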

In assay [6] the target is T3, Carboxy-terminal domain RNA polymerase II polypeptide A small phosphatase 1 (Homo sapiens, UniProt Q9GZU7).
T3 sequence (Q9GZU7 whole entry): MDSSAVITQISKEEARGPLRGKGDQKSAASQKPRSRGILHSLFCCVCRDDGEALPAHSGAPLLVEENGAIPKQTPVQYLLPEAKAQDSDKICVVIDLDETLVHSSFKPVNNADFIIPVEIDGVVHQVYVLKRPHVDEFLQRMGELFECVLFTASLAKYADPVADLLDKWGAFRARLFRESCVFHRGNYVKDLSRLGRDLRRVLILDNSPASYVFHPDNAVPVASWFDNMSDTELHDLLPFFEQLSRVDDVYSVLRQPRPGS
Description: inhibitors of CTDSP1, concentration-response testing, biochemical assay, absorbance-based, actives from ultra-high-throughput screening (AID 540297). The format is functional.

Assay [7] deals with Histone-lysine N-methyltransferase NSD2 (Homo sapiens, UniProt O96028). The format is biochemical.
Chain of Histone-lysine N-methyltransferase NSD2 (O96028 whole entry): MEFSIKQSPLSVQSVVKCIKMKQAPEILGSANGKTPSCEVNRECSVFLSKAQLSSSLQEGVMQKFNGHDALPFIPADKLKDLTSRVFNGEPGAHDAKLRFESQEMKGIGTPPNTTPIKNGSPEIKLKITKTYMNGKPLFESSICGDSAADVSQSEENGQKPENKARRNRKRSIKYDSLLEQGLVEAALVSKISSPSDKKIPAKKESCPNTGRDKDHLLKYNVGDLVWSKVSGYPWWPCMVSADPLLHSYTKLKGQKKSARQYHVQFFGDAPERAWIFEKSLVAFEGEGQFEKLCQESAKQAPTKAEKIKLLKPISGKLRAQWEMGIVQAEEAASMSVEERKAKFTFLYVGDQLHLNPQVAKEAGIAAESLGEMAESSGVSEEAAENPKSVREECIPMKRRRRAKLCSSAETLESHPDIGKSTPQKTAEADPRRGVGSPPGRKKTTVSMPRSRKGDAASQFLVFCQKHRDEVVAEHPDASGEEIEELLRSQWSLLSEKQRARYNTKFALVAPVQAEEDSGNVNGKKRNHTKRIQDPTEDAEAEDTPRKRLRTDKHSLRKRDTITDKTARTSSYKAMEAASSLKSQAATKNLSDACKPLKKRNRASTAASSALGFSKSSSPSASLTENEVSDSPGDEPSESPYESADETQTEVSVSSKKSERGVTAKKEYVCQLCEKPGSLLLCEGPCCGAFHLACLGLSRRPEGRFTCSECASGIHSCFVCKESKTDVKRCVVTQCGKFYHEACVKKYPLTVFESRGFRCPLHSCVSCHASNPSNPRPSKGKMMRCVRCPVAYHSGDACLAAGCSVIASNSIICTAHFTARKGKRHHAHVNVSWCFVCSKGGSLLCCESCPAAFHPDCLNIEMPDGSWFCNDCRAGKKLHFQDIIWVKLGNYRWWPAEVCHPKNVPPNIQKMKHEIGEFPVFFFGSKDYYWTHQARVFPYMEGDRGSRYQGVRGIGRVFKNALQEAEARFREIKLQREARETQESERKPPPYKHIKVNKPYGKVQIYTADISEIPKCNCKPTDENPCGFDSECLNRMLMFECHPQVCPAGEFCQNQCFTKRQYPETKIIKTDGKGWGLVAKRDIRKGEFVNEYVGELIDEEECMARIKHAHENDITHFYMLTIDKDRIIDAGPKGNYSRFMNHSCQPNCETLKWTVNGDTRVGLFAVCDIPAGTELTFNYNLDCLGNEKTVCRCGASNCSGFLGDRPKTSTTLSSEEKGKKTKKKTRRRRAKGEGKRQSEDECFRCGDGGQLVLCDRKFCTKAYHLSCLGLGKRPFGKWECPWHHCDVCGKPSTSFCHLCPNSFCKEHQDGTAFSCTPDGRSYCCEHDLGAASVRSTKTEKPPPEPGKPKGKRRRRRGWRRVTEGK
The next assay deals with Genome polyprotein (dengue virus type 2, UniProt P29990). Description: Dengue-2 NS5 methyltransferase inhibitors, primary screen, biochemical, confirmation dose response (AID 588689). The class given is functional.
Chain of Genome polyprotein (P29990 2492-3391 limits assumed): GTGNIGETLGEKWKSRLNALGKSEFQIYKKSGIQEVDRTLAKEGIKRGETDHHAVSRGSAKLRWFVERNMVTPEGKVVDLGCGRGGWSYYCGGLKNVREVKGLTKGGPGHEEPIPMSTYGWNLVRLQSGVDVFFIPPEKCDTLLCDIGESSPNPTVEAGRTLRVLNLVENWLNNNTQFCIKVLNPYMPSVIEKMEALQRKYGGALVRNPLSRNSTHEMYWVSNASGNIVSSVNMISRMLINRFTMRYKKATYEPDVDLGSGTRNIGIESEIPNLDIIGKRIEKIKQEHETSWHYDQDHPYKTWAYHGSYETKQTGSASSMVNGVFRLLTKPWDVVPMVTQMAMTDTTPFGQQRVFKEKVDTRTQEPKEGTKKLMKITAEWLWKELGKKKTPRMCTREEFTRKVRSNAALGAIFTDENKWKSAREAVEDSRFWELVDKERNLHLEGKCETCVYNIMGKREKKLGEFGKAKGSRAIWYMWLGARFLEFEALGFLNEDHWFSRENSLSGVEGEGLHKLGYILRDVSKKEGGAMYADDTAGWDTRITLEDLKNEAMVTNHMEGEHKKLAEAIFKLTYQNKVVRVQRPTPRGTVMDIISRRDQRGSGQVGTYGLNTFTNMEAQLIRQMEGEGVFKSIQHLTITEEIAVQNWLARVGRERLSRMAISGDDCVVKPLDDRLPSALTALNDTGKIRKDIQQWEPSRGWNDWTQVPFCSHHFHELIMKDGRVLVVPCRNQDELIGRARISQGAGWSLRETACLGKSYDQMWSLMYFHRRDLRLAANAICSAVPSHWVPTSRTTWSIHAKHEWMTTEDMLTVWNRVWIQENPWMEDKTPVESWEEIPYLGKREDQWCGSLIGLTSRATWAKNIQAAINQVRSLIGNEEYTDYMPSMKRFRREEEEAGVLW
The nature of assay [8]: Luminescence Cell-Based Dose Response HTS to Identify Activators of Luciferase Translation or Activity in H4 […] Cells. [Related pubchem assays: 1829 (Project Summary), 1814 (Primary HTS)]. The class given is functional.
Assay [9] is described as follows: Luminescence Cell-Based Dose Confirmation HTS to Identify Activators of 5'UTR Stem-Loop Driven Alpha-Synuclein mRNA Translation in H4 Neuroglioblastoma Cells. [Related pubchem assays: 1829 (Project Summary), 1814 (Primary HTS)]. The class given is functional.
Assay [10] is described as follows: Vero cell cytotoxicity, cytotoxicity control for M. tuberculosis inhibitor project, purified and synthesized samples, set 3 (AID 504684). The format is functional. The settings on record: […].
For another assay, the system named is H4. The experiment in a line: Luminescence Cell-Based Dose Response HTS to Identify Activators of 5'UTR Stem-Loop Driven Prion Protein mRNA Translation in H4 Neuroglioblastoma Cells. [Related pubchem assays: 1829 (Project Summary), 1814 (Primary HTS)]. The class given is functional. The settings on record: Homo sapiens.
A short description of assay [11]: Shn3 3'UTR reporter inhibitors, dose response, cell-based, Clone20 osteoblasts, firefly luciferase, cherry-picked (AID 624132).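 Note: firefly luciferase luminescence from reporter carrying the Shn3 3'UTR in osteoblasts.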 The format is functional.
A short description of assay [12]: HepG2 cell cytotoxicity, dose response, cytotoxicity control for Shn3 inhibitor project, CellTiter-Glo, cherry-picked (AID 624134). The class given is functional, cell-based.
The target in another assay is Protein Wnt-3a (Mus musculus, UniProt P27467). Description: Wnt3a-driven reporter signaling inhibition, dose response, selectivity assay for Gli-SUFU antagonist project, Wnt-LIGHT cells, luminescence (AID 651570).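 Note: Wnt-LIGHT reporter cells stimulated with conditioned medium from Wnt3a-producing cells.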 The class given is functional. Particulars: read-out: IC50_Mean.
Chain of Protein Wnt-3a (P27467 whole entry): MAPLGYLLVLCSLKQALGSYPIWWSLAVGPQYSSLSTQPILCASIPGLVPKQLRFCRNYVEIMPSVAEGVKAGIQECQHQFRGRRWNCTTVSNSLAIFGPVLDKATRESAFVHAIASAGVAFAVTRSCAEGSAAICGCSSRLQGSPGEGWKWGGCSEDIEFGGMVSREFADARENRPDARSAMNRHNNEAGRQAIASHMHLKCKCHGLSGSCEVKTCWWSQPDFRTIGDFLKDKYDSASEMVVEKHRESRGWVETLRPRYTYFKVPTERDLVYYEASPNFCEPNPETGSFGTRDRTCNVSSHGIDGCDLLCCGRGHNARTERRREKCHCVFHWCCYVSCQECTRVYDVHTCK
A short description of assay [13]: control 3'UTR Renilla luciferase suppression, dose response, counter-screen for Shn3 inhibitor project, cell-based, Clone20-Shn3RL, cherry-picked (AID 624133). The format is functional.
Assay [14] addresses T4, Sentrin-specific protease 1 (Homo sapiens, UniProt Q9P0U3).
T4 sequence (Q9P0U3 whole entry): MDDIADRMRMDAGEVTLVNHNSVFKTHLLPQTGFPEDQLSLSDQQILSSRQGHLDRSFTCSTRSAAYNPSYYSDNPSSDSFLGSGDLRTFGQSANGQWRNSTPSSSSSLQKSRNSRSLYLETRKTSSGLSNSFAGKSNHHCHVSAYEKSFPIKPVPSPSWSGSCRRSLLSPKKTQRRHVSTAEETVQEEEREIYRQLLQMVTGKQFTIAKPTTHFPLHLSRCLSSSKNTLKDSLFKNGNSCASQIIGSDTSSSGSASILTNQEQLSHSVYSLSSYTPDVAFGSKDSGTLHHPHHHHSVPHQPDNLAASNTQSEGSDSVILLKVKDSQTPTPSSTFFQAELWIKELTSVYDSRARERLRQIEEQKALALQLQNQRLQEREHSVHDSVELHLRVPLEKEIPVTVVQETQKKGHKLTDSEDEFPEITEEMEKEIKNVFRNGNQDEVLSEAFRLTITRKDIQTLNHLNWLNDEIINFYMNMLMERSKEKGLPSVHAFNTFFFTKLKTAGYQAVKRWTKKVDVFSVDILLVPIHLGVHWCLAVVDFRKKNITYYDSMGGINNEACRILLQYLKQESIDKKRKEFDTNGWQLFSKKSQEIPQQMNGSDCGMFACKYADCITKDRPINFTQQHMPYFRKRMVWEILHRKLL
Description: potency of human SENP1 inhibitors, dose response, biochemical, kinetic FRET (AID 651697). The format is functional. Particulars: read-out: IC50_Mean.

In the next assay the target is Melanocortin receptor 4 (Homo sapiens, UniProt P32245). The format is functional, cell-based.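 Note: Cell-based assay with luminescence read-out, confirmatory dose-response testing for agonist activity of biased ligands at MC4R; human U2OS cells with tagged receptor and beta-arrestin; potency of agonists that increase receptor coupling to beta-arrestin.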
Chain of Melanocortin receptor 4 (P32245 whole entry, the tested form may be a part): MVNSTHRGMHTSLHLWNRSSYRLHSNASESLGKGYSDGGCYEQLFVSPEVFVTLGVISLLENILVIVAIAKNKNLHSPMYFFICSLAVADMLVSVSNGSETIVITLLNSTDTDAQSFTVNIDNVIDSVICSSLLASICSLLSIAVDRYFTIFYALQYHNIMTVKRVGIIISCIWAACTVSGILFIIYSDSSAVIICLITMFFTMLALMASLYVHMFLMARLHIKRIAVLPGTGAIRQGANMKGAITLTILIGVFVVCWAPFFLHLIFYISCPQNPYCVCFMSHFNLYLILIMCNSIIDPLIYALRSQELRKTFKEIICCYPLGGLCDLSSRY
In assay [15] the target is T4, Sentrin-specific protease 1. Description: Dose response confirmation of small molecule inhibitors of the catalytic domain of the SUMO protease, SENP1 in a FRET assay. Particulars: read-out: IC50_Mean. The format is functional.
Assay [16] concerns the target Melanin-concentrating hormone receptor 1 (Homo sapiens, UniProt Q99705). Description: Late-stage fluorescence-based counterscreen for antagonists of the G-protein coupled receptor 7 (GPR7): cell-based dose response assay to identify antagonists of the melanin-concentrating hormone receptor 1 (MCHR1) Set 6. The class given is functional.
Assay [17] has as its target T5, Neuropeptides B/W receptor type 1 (Homo sapiens, UniProt P48145).
T5 sequence (P48145 whole entry): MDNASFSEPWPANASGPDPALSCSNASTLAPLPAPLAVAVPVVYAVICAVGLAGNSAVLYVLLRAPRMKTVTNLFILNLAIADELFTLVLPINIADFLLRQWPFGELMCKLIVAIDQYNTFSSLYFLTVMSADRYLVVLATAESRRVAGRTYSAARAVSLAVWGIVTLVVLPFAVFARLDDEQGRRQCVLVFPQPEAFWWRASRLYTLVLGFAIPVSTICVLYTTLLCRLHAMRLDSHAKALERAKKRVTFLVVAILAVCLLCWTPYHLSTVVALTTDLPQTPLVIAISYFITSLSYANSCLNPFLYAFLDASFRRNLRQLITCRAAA
Description: GPR7 antagonist potency, late-stage follow-up, cell-based, fluorescence, dose response, set 6 (AID 588583). The format is functional.

The nature of assay [18]: ARNT/TACC3 interaction disruptors, potency, confirmation, biochemical, AlphaScreen, cherry-picked samples (AID 651703).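 Note: His-tagged ARNT PAS-B domain paired with GST-TACC3 E629A dimer coactivator fragment; potency of inhibitors that break up the complex and lower AlphaScreen signal.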 The format is functional, Homo sapiens.
Assay [19] deals with Ras and Rab interactor 1/Tyrosine-protein kinase ABL1 (Homo sapiens, UniProt P00519+Q13671). The format is functional.

Molecules are shown by their SMILES. Calls of active or inactive are those of the source.

Chain of Melanin-concentrating hormone receptor 1 (Q99705 whole entry): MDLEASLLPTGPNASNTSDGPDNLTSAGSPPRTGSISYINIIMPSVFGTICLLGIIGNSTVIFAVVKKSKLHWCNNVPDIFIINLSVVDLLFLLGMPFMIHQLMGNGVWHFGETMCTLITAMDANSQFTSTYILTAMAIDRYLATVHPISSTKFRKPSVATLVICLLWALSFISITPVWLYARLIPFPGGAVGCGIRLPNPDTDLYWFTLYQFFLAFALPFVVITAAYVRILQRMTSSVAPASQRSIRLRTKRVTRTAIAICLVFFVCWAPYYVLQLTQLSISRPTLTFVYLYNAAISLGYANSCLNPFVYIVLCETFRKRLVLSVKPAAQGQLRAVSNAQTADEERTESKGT
Chain of Potassium voltage-gated channel subfamily KQT member 2 (O88943 whole entry): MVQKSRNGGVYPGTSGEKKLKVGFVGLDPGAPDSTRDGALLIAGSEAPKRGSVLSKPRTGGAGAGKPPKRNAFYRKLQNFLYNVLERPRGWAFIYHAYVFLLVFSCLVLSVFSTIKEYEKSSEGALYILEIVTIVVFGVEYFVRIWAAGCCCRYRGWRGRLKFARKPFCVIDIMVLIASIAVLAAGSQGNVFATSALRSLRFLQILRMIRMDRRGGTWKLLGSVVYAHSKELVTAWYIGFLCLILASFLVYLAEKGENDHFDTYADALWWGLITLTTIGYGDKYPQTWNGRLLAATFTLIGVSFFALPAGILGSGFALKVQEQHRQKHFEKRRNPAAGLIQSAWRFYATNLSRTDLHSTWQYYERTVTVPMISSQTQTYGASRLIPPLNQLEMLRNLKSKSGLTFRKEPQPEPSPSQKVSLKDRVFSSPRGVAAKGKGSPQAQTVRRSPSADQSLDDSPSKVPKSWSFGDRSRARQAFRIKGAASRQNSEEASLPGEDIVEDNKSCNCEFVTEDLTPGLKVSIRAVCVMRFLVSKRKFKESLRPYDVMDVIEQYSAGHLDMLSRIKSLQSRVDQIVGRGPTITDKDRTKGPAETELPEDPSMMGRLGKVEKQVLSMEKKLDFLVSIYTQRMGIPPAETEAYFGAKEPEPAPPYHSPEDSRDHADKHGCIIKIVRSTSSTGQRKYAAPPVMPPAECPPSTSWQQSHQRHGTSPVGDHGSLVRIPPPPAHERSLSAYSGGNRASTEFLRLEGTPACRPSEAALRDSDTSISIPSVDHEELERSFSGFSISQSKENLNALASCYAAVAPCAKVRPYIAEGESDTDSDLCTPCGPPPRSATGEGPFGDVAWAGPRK

Turning to `COCCNC(C(=O)Nc1cc(Cl)cc(Cl)c1)c1ccccc1` (stereo not given), the IC50 in assay [1] was 16.1 µM (active).
With `Cn1c(C(=O)NCCN2CCCCCC2)cc2c(=O)n(C)c3ccccc3c21`, the AC50 in assay [2] is 25.3 µM (active).
Turning to `Cc1cc(/C=C2\C(=O)NC(=O)N(c3ccccc3F)C2=O)c(C)n1-c1cc(C(=O)O)cc(C(=O)O)c1`, the results for the IC50 (in assay [3]; in assay [6]; on Genome polyprotein) were 10.7 µM (active), 1.55 µM (active) and 63.6 µM (active), respectively. For the same molecule, the EC50 in assay [4] and in assay [5] was > 300 µM (not active) throughout. In addition, the AC50 in [7] is > 20 µM (inactive).
As to `CCc1ccc(/C=C2/C(=O)N(C)C(=S)N2CC(=O)OC)s1`, the values for the EC50 (in assay [8]; in [9]; with H4) were > 120 µM (not active), 16.6 µM (active) and > 120 µM (not active), respectively. For the same molecule, the CC50 in [10] was > 100 µM (active).
`CCCCN(C(C)=O)c1ccc2c(c1)C1CC2CCN1C(=O)OCc1ccccc1` (stereo not given): the half-maximal activity concentration (AC50) was 1.37 µM (active) in assay [11], 66.9 µM (active) in assay [12] and 4.4 µM (active) in assay [13]. For the same molecule, the IC50 on Protein Wnt-3a was 3.72 µM (active).
On to `CC(=O)c1cccc(-c2cnc3c(NC=O)cc(-c4ccc(N(C)C)cc4)cn23)c1`, for which the values for the IC50 in [14] and in [15] were 9.66 µM (active) and 11.2 µM (active), respectively. For the same molecule, the EC50 at Melanocortin receptor 4 is > 89.2 µM (inactive).
Turning to `N#CC(c1nc2ccccc2s1)c1c(Cl)cnn(Cc2cccc3ccccc23)c1=O` (stereo not given), the IC50 in assay [16] and in [17] was 0.186 µM (active) throughout.
With `N#CC(c1ccc(F)c(F)c1)c1c(Cl)cnn(Cc2cccc3ccccc23)c1=O` (stereo not given), the IC50 in assay [16] and in assay [17] was 0.186 µM (active) throughout.
With `N#C[C@@H]1[C@@H](c2ccc(-c3ccc(F)cc3)cc2)[C@H](CO)N1c1nc(-c2ccccc2)cs1`, the AC50 in assay [18] is 84.2 µM (active).
As for `Oc1ncnc2c1C(c1ccccc1)c1c(O)ncnc1O2`, the IC50 in assay [19] was 32 µM (inactive).

The values are drawn from ChEMBL document CHEMBL1201862, “PubChem BioAssay data set” (2004).
